Measured values from US6495542B1, “Benzamide derivatives as vasopressin antagonists” (Fujisawa Pharmaceutical Co., Ltd., priority 1998, dated 2002).
Structures can show the parent of a compound that is named as a salt.

Experiments:
[1] = target: Vasopressin 1 (VI) Receptor (Rattus norvegicus, UniProt P30560); experiment: Vasopressin 1 (V1) receptor binding, rat; details: Test 1 V1 receptor binding
Description: (§1) Vasopressin 1 (VI) Receptor Binding
(§2) Competition assays were conducted at equilibrium (15 minutes at 30° C.) by using 1.5 nM ^3H-vasopressin (40-87 Ci/mmol; New England Nuclear) in 100 mM Tris-HCl buffer (pH 7.4). Nonspecific binding was determined by using 1 μM vasopressin. After incubation, the reaction was terminated by adding 5 ml of ice-cold 100 mM Tris-HCl buffer (pH 7.4), and then filtered immediately through Whatman glass filter (GF/C). The filter was washed twice with the same buffer. The glass filter was placed in a liquid scintillation cocktail, and the radioactivity thereof was counted by using a liquid scintillation counter. Competition activity of the test compound was represented by IC50 values.

[2] = target: T1, Vasopressin 1 (VI) Receptor (Homo sapiens, UniProt P37288); experiment: Vasopressin 1 (V1) receptor binding, 3H-vasopressin competition on human platelet membranes; details: competition with 1.5 nM 3H-vasopressin, 15 minutes at 30° C.
T1 construct: Platelet-rich plasma (PRP) was prepared by centrifugation of whole blood; from tissue; host or cells: platelet membranes from blood of a normal subject
Description: as §1
Blood was obtained from normal subject by venipuncture. Platelet-rich plasma (PRP) was prepared by centrifugation of whole blood at 200×g for 10 minutes. PRP was centrifuged at 45,000×g for 30 minutes. The remaining pellet was resuspended in 10 volume of ice-cold 100 mM Tris-HCl buffer (pH 7.4, containing 5 mM MgCl2, 0.1% bovine serum albumin and 1 mM EDTA), and again centrifuged at 45,000×g for 30 minutes. The final pellet was resuspended in 100 mM Tris-HCl buffer. The resulting suspension was used immediately for the binding assay.
as §2

human V2 receptor = target: T2, human V2 receptor (Homo sapiens, UniProt P30518); experiment: Vasopressin 2 (V2) receptor binding, 3H-vasopressin competition on membranes of CHO cells expressing human V2 receptor; details: human V2 receptor in CHO cells; competition with 0.5 nm 3H-vasopressin, 2 hours at 22° C.
T2 construct: expressed in transfected cells
Excerpt: Vasopressin 2 (V2) Receptor Binding
For binding assays, a receptor cDNA was permanently expressed in Chinese hamster ovary (CHO) cells. A vector directing expression of the cDNA of a human V2 receptor was transfected into the CHO cells, and the clonal cell lines expressing the human V2 receptor were established essentially as described previously (Nakajima, Y., et. al. J. Biol. chem., 267, 2437, 1992).
DNA-transfected cells were harvested and homogenized in ice-cold […] Tris-HCl (pH 7.4), 10 mM MgCl2, 1 mM EDTA and 5 μg/ml p-amidinophenylmethylsulfonyl fluoride (A-PMSF). The homogenate was centrifuged at 500×g for 10 minutes. The supernatant was centrifuged at […] for 1 hour. The final pellet was suspended in 25 mM Tris-HCl buffer (pH 7.4, containing 10 mM MgCl2, 1 mM EDTA and 5 μg/ml A-PMSF), and stored in small aliquots at −80° C.
Competition assays were conducted at equilibrium (2 hours at 22° C.) by using 0.5 nm ^3H-vasopressin (40-87 Ci/mmol; New England Nuclear) in 100 mM Tris-HCl buffer (pH 7.4, containing 5 mM MgCl2, 5 μg/ml A-PMSF, 4 μg/ml leupeptin, 40 μg/ml bacitracin, 20 μg/ml chymostatin and 0.1% bovine serum albimin). Nonspecific binding was determined by using 1 μM vasopressin. After incubation, the reaction mixture was immediately filtered through Whatman glass filter (GF/C). The filter was washed twice with the same buffer. The radioactivity was counted by using a liquid scintillation counter. Competition activity of the test compound was represented by IC50 values.

Chain of Vasopressin 1 (VI) Receptor (Rattus norvegicus, UniProt P30560) (P30560 whole entry): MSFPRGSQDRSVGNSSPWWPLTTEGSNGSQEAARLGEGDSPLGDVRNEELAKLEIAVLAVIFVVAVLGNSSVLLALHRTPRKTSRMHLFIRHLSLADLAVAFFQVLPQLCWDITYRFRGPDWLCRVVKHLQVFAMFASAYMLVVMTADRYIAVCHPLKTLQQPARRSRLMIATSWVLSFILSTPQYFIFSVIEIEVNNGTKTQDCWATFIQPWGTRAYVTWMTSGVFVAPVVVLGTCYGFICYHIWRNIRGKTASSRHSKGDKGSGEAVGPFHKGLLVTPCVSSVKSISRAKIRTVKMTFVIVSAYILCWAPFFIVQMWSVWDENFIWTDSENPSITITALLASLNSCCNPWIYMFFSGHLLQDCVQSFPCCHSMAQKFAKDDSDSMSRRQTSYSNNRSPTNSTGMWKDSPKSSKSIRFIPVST
T2 sequence (P30518 whole entry): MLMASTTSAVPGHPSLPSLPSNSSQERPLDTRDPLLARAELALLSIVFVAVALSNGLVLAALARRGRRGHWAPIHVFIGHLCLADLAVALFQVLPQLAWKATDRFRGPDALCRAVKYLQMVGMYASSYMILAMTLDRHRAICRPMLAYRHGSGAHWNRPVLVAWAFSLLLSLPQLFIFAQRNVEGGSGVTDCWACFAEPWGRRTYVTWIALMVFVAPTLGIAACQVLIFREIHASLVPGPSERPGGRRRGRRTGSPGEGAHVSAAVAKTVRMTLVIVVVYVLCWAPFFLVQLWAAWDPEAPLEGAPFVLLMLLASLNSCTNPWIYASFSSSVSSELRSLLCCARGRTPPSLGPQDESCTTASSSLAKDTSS
T1 sequence (P37288 whole entry): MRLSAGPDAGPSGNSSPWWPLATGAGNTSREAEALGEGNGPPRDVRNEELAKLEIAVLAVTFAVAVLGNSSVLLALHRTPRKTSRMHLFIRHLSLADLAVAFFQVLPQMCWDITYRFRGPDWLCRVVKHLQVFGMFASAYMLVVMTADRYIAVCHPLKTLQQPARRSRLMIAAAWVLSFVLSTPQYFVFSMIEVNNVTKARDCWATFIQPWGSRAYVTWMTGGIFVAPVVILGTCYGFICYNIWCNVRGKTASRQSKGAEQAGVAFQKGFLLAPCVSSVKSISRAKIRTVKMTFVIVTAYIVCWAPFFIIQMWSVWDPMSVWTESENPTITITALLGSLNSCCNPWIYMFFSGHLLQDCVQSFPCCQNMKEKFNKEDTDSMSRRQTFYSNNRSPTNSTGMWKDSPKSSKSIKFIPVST

| SMILES | IC50 [1] | IC50 [2] | IC50 (human V2 receptor) |
| --- | --- | --- | --- |
| COc1cc(C(=O)N2CCCCc3ccccc32)ccc1C(=O)Nc1cccc2[nH]cnc12 [Example 50, N-(1H-Benzimidazol-4-yl)-2-methoxy-4-(2,3,4,5-tetrahydro-1H-1-benzazepin-1-yl)carbonylbenzamide hydrochloride] | 1.8 nM | 0.55 nM | 69 nM |
| COc1cc(C(=O)N2CCCCc3ccccc32)ccc1C(=O)Nc1cccc2[nH]c(C(=O)N(C)C)nc12 [Example 73, N-[2-(N,N-Dimethylcarbamoyl)-1H-benzimidazol-4-yl]-2-methoxy-4-(2,3,4,5-tetrahydro-1H-1-benzazepin-1-yl)carbonylbenzamide] | 2.2 nM | 0.5 nM | 159 nM |
| CCc1nc2c(NC(=O)c3ccc(C(=O)N4CCCCc5ccccc54)cc3OC)cccc2[nH]1 [Example 55, N-(2-Ethyl-1H-benzimidazol-4-yl)-2-methoxy-4-(2,3,4,5-tetrahydro-1H-1-benzazepin-1-yl)carbonylbenzamide hydrochloride] | 1.7 nM | 0.7 nM | 104 nM |

Other lines, results leading:

| IC50 [1] | IC50 [2] | IC50 (human V2 receptor) | SMILES |
| --- | --- | --- | --- |
| 0.2 nM | 0.08 nM | 140 nM | COc1cc(C(=O)N2CCCCc3ccccc32)ccc1C(=O)Nc1cccc2[nH]c(N(C)CCN)nc12 [Example 76, N-[2-[N-(2-Aminoethyl)-N-methylamino]-1H-benzimidazol-4-yl]-2-methoxy-4-(2,3,4,5-tetrahydro-1H-1-benzazepin-1-yl)carbonylbenzamide dihydrochloride] |
| 2.1 nM | 0.41 nM | 241 nM | COc1cc(C(=O)N2CCCCc3ccccc32)ccc1C(=O)Nc1cccc2[nH]c(C)nc12 [Example 2, 2-methoxy-N-(2-methyl-1H-benzimidazol-4-yl)-4-(2,3,4,5-tetrahydro-1H-1-benzazepin-1-yl)-carbonylbenzamide] |
